# Assay results from ChEMBL document CHEMBL4804284.
# What was measured:
# Design in all cases: scale not given: the % may be the effect or the level left
# [1] = biological target: Serine/threonine-protein kinase Nek5 (Homo sapiens) (UniProt Q6P3R8); assay: Inhibition of DNA-tagged human NEK5 assessed as percent of control at 50000 nM by qPCR analysis relative to control
# [2] = biological target: Mitogen-activated protein kinase kinase kinase 15 (Homo sapiens) (UniProt Q6ZN16); assay: Inhibition of DNA-tagged human MAP3K15 assessed as percent of control at 50000 nM by qPCR analysis relative to control
# [3] = biological target: BMP-2-inducible protein kinase (Homo sapiens) (UniProt Q9NSY1); assay: Inhibition of DNA-tagged human BIKE assessed as percent of control at 50000 nM by qPCR analysis relative to control
# Sequence of BMP-2-inducible protein kinase (Homo sapiens) (Q9NSY1 whole entry, looked up): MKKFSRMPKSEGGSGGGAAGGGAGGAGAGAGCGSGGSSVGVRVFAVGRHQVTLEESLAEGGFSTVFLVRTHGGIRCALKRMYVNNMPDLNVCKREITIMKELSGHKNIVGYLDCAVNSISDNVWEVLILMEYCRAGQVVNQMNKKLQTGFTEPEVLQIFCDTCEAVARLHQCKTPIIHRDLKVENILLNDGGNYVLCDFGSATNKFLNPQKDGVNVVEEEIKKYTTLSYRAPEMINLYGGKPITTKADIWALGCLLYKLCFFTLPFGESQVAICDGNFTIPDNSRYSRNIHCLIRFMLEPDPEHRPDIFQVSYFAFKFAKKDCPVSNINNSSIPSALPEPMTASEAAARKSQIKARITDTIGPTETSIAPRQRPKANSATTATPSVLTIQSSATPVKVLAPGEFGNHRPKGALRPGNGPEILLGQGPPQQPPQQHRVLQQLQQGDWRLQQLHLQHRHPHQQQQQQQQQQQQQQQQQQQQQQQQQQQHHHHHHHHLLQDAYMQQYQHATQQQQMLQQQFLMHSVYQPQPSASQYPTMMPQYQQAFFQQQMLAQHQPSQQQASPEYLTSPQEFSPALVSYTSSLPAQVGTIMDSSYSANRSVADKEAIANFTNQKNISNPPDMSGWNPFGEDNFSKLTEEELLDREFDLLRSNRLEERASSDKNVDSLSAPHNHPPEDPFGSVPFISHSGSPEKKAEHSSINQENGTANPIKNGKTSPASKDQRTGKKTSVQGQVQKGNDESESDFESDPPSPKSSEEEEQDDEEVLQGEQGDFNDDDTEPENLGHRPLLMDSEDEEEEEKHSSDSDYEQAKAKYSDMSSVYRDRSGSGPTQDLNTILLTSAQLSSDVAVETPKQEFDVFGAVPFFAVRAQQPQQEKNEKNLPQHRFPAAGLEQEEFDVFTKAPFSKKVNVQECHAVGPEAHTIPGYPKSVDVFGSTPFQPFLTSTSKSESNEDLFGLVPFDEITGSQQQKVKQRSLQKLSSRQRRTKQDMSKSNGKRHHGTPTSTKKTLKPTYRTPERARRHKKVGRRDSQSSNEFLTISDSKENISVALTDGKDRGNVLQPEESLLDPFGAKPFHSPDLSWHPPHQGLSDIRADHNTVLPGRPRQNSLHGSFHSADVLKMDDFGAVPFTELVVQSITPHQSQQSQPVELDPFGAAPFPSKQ
# [4] = system: Tyrosine-protein kinase ABL1 (Homo sapiens), P00519 [M351T]; assay: Inhibition of DNA-tagged phosphorylated human ABL1 M351T mutant assessed as percent of control at 50000 nM by qPCR analysis relative to control
# [5] = system: Receptor-type tyrosine-protein kinase FLT3 (Homo sapiens), P36888 [N841I]; assay: Inhibition of DNA-tagged human FLT3 N841I mutant assessed as percent of control at 50000 nM by qPCR analysis relative to control
# [6] = biological target: TRAF2 and NCK-interacting protein kinase (Homo sapiens) (UniProt Q9UKE5); assay: Inhibition of DNA-tagged human TNIK assessed as percent of control at 50000 nM by qPCR analysis relative to control
# [7] = biological target: BDNF/NT-3 growth factors receptor (Homo sapiens) (UniProt Q16620); assay: Inhibition of DNA-tagged human TRKB assessed as percent of control at 50000 nM by qPCR analysis relative to control
# Sequence of BDNF/NT-3 growth factors receptor (Homo sapiens) (Q16620 32-822 limits assumed): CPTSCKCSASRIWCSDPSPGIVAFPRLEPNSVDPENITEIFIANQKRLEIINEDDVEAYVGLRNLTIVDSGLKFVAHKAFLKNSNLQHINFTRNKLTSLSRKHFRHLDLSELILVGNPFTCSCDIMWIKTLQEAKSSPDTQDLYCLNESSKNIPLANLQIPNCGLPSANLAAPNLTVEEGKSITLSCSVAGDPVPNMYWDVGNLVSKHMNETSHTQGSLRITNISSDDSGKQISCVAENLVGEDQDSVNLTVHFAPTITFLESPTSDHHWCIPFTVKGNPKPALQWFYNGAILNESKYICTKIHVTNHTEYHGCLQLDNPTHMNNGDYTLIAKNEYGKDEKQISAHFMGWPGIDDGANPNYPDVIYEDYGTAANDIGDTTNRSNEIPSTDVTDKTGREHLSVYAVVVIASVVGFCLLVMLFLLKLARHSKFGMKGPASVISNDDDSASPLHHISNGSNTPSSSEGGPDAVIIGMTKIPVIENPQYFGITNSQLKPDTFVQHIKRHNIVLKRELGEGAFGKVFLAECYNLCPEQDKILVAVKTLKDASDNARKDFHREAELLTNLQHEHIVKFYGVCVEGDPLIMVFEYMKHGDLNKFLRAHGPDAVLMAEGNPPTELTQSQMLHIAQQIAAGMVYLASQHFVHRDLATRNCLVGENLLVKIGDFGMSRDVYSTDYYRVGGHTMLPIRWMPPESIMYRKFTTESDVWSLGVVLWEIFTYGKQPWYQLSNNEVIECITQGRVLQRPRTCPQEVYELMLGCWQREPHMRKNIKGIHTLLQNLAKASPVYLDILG
# [8] = biological target: Tyrosine-protein kinase Mer (Homo sapiens) (UniProt Q12866); assay: Inhibition of DNA-tagged human MERTK assessed as percent of control at 50000 nM by qPCR analysis relative to control
# [9] = biological target: Interleukin-1 receptor-associated kinase 3 (Homo sapiens) (UniProt Q9Y616); assay: Inhibition of DNA-tagged human IRAK3 assessed as percent of control at 50000 nM by qPCR analysis relative to control
# [10] = biological target: Calcium/calmodulin-dependent protein kinase type 1 (Homo sapiens) (UniProt Q14012); assay: Inhibition of DNA-tagged human CAMK1 assessed as percent of control at 50000 nM by qPCR analysis relative to control
# Sequence of Calcium/calmodulin-dependent protein kinase type 1 (Homo sapiens) (Q14012 whole entry, looked up): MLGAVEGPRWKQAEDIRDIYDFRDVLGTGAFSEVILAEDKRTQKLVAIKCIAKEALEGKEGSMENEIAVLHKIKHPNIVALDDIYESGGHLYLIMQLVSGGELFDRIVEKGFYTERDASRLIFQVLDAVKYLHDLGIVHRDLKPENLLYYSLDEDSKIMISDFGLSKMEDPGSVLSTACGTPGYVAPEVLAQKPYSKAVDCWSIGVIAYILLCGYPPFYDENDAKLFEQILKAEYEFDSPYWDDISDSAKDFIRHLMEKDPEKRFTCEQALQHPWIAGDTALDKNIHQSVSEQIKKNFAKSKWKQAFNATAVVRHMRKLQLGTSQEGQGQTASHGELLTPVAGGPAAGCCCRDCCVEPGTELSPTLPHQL
# [11] = biological target: Tyrosine-protein kinase FRK (Homo sapiens) (UniProt P42685); assay: Inhibition of DNA-tagged human FRK assessed as percent of control at 50000 nM by qPCR analysis relative to control
# [12] = biological target: Cyclin-dependent kinase 17 (Homo sapiens) (UniProt Q00537); assay: Inhibition of DNA-tagged human PCTK2 assessed as percent of control at 50000 nM by qPCR analysis relative to control
# Sequence of Cyclin-dependent kinase 17 (Homo sapiens) (Q00537 whole entry, looked up): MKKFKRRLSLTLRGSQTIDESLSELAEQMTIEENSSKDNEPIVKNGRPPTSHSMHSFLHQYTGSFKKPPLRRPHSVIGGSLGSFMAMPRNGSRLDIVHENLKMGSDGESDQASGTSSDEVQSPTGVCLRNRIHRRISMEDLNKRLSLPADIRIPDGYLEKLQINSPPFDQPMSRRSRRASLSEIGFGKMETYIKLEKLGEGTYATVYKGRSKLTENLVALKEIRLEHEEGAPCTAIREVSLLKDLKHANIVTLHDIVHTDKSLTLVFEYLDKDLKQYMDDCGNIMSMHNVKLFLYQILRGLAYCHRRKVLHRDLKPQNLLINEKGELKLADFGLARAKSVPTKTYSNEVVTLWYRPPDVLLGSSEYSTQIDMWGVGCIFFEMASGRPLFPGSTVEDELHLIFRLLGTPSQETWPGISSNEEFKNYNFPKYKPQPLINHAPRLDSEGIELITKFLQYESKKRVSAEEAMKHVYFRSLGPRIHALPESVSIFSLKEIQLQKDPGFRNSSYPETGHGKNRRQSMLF
# [13] = biological target: Cyclin-G-associated kinase (Homo sapiens) (UniProt O14976); assay: Inhibition of DNA-tagged human GAK assessed as percent of control at 50000 nM by qPCR analysis relative to control
# Sequence of Cyclin-G-associated kinase (Homo sapiens) (O14976 whole entry): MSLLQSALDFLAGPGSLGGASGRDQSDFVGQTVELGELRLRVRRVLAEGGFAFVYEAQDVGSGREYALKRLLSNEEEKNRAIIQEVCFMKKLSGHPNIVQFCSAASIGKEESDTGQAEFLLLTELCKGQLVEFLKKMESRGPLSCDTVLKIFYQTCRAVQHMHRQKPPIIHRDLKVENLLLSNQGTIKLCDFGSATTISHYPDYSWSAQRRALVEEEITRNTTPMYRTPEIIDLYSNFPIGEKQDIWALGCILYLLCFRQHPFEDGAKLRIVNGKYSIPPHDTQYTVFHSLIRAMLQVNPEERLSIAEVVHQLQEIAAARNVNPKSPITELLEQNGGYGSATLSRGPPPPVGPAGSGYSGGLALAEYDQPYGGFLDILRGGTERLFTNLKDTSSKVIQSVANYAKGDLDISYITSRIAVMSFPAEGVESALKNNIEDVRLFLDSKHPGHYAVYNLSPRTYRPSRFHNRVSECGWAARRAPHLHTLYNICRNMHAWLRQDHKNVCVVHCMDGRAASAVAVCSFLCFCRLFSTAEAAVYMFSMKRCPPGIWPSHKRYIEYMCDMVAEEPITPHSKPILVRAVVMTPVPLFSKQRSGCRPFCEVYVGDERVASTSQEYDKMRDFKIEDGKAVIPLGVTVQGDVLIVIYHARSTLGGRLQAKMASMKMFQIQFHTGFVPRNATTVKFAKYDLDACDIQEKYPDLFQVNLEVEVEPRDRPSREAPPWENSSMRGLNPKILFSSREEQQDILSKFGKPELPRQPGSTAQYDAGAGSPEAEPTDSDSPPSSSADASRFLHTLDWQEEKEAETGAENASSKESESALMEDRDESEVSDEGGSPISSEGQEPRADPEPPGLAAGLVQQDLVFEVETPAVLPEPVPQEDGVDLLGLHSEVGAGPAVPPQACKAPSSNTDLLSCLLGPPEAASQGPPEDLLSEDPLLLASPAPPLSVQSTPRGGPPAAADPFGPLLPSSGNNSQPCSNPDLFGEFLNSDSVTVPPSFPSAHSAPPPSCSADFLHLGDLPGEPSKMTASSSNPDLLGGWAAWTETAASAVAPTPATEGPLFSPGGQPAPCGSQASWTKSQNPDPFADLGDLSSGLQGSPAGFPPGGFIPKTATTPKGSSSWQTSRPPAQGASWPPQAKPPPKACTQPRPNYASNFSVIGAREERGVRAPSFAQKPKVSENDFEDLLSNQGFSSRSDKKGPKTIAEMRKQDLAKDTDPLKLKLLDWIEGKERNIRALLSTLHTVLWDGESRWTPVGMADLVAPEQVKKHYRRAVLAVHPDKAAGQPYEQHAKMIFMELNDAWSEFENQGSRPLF
# [14] = system: Mast/stem cell growth factor receptor Kit (Homo sapiens), P10721 [D816H]; assay: Inhibition of DNA-tagged human KIT D816H mutant assessed as percent of control at 50000 nM by qPCR analysis relative to control
# [15] = biological target: Serine/threonine-protein kinase MRCK beta (Homo sapiens) (UniProt Q9Y5S2); assay: Inhibition of DNA-tagged human MRCKB assessed as percent of control at 50000 nM by qPCR analysis relative to control
# [16] = biological target: Platelet-derived growth factor receptor alpha (Homo sapiens) (UniProt P16234); assay: Inhibition of DNA-tagged human PDGFRA assessed as percent of control at 50000 nM by qPCR analysis relative to control
# [17] = biological target: Serine/threonine-protein kinase tousled-like 2 (Homo sapiens) (UniProt Q86UE8); assay: Inhibition of DNA-tagged human TLK2 assessed as percent of control at 50000 nM by qPCR analysis relative to control
# Sequence of Serine/threonine-protein kinase tousled-like 2 (Homo sapiens) (Q86UE8 whole entry, looked up): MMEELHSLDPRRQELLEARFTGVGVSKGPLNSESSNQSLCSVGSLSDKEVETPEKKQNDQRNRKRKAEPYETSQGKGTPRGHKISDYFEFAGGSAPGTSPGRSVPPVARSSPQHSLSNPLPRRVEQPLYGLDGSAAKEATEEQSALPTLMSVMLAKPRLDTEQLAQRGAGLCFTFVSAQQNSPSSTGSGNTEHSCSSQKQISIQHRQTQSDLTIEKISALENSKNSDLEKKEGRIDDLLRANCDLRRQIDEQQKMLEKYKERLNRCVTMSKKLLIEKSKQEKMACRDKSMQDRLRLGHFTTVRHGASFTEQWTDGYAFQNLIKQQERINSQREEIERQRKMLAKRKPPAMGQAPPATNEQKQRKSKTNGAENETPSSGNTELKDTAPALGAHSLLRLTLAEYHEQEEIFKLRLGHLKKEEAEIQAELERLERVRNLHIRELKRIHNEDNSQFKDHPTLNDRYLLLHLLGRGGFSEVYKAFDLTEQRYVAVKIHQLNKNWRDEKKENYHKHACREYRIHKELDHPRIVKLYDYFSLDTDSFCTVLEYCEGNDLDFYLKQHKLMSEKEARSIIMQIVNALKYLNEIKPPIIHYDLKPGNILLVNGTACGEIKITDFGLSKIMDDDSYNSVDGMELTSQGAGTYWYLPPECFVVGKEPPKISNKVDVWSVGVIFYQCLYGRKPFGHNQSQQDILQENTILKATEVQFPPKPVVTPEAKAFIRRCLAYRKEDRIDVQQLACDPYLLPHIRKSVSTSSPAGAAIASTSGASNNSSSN
# [18] = biological target: Cyclin-dependent kinase 4/cyclin D1 (Homo sapiens) (UniProt P11802+P24385); assay: Inhibition of DNA-tagged human CDK4/cyclin D1 assessed as percent of control at 50000 nM by qPCR analysis relative to control; assay type: protein-complex assay
# [19] = biological target: Fibroblast growth factor receptor 1 (Homo sapiens) (UniProt P11362); assay: Inhibition of DNA-tagged human FGFR1 assessed as percent of control at 50000 nM by qPCR analysis relative to control
# [20] = biological target: Serine/threonine-protein kinase 32A (Homo sapiens) (UniProt Q8WU08); assay: Inhibition of DNA-tagged human YANK1 assessed as percent of control at 50000 nM by qPCR analysis relative to control
# [21] = biological target: Tyrosine-protein kinase ABL1 (Homo sapiens) (UniProt P00519); assay: Inhibition of DNA-tagged phosphorylated human ABL1 assessed as percent of control at 50000 nM by qPCR analysis relative to control
# [22] = biological target: Serine/threonine-protein kinase pim-1 (Homo sapiens) (UniProt P11309); assay: Inhibition of DNA-tagged human PIM1 assessed as percent of control at 50000 nM by qPCR analysis relative to control
# [23] = biological target: Tyrosine-protein kinase Fgr (Homo sapiens) (UniProt P09769); assay: Inhibition of DNA-tagged human FGR assessed as percent of control at 50000 nM by qPCR analysis relative to control
# [24] = system: Tyrosine-protein kinase ABL1 (Homo sapiens), P00519 [E255K]; assay: Inhibition of DNA-tagged phosphorylated human ABL1 E255K mutant assessed as percent of control at 50000 nM by qPCR analysis relative to control
# [25] = biological target: Protein kinase C theta type (Homo sapiens) (UniProt Q04759); assay: Inhibition of DNA-tagged human PRKCQ assessed as percent of control at 50000 nM by qPCR analysis relative to control
# [26] = biological target: Serine/threonine-protein kinase N2 (Homo sapiens) (UniProt Q16513); assay: Inhibition of DNA-tagged human PKN2 assessed as percent of control at 50000 nM by qPCR analysis relative to control
# [27] = biological target: Myosin light chain kinase, smooth muscle (Homo sapiens) (UniProt Q15746); assay: Inhibition of DNA-tagged human MYLK assessed as percent of control at 50000 nM by qPCR analysis relative to control
# [28] = biological target: Rhodopsin kinase GRK7 (Homo sapiens) (UniProt Q8WTQ7); assay: Inhibition of DNA-tagged human GRK7 assessed as percent of control at 50000 nM by qPCR analysis relative to control
# [29] = biological target: Ephrin type-A receptor 7 (Homo sapiens) (UniProt Q15375); assay: Inhibition of DNA-tagged human EPHA7 assessed as percent of control at 50000 nM by qPCR analysis relative to control
# [30] = biological target: LIM domain kinase 1 (Homo sapiens) (UniProt P53667); assay: Inhibition of DNA-tagged human LIMK1 assessed as percent of control at 50000 nM by qPCR analysis relative to control
structure (smiles),measurement,setting,value
CN1C(=O)/C(=C2/C(=O)Nc3ccccc32)c2ccccc21,Activity,[1],96%
same,Activity,[2],69%
same,Activity,[3],95%
same,Activity,[4],73%
same,Activity,[5],100%
same,Activity,[6],100%
same,Activity,[7],88%
same,Activity,[8],100%
same,Activity,[9],90%
same,Activity,[10],88%
same,Activity,[11],96%
same,Activity,[12],96%
same,Activity,[13],98%
same,Activity,[14],75%
same,Activity,[15],83%
same,Activity,[16],85%
same,Activity,[17],88%
same,Activity,[18],81%
same,Activity,[19],100%
same,Activity,[20],99%
same,Activity,[21],96%
same,Activity,[22],83%
same,Activity,[23],95%
same,Activity,[24],100%
same,Activity,[25],99%
same,Activity,[26],99%
same,Activity,[27],82%
same,Activity,[28],100%
same,Activity,[29],100%
same,Activity,[30],84%
